Here are results for two compounds from paper PMC4152272 (PLoS ONE, 2014).

Test [1] has as its system T1, N188 (Novozyme 188 BGL).
T1 construct: gene bglA; commercial preparation Novozyme 188 (Novozymes), partially purified; N-glycosylated
Kind of test: glucose release, glucose assay reagent, […] nm. Type of test: biochemical. Conditions: 50 mM acetate pH 5.0.

In test [2] the test system is T1, N188 (Novozyme 188 BGL). Description: p-nitrophenol release, […] nm, nonlinear least squares. Type of test: biochemical. The following applies: 50 mM acetate pH 5.0, 50°C, 1 min.

As for `OC[C@H]1O[C@@H](O[C@H]2[C@H](O)[C@@H](O)C(O)O[C@@H]2CO)[C@H](O)[C@@H](O)[C@@H]1O` (some centres unmarked) [cellobiose], the Km in the test on N188 (Novozyme 188 BGL) [1] was found to be 2530 ± 506 µM.

Take `O=[N+]([O-])c1ccc(O[C@@H]2O[C@H](CO)[C@@H](O)[C@H](O)[C@H]2O)cc1` [pNPG, p-nitrophenyl β-D-glucopyranoside]: in the test with N188 (Novozyme 188 BGL) [2], the Km was 1250 ± 164 µM.
